Each structure is given as a SMILES string.

The target in one assay is T1, CDK8/CycC (Homo sapiens, UniProt P49336).
T1 construct: purchased Carna Biosciences
Put plainly: CDK8 inhibitory activity (TR-FRET, Kinase Tracer-236 displacement). The assay is classed as binding. As to conditions: 1 μM of the test compound; read-out: Percent inhibition of CDK8 activity (%). The method in brief:
(§1)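 Binding assay measuring displacement of Kinase Tracer-236 (60 nM in the added mix) by compound, using Eu-cryptate anti-GST antibody with CDK8/CycC (84 ng/mL) or CDC2L6/CycC (87 ng/mL) solutions. After 1 h at room temperature, TR-FRET read at 615 and 665 nm (excitation 320 nm).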

A further assay deals with T2, CDK19 (CDC2L6/CycC) (Homo sapiens, UniProt Q9BWU1).
T2 construct: purchased Carna Biosciences
The experiment in a line: CDK19 inhibitory activity (TR-FRET, Kinase Tracer-236 displacement). It counts as binding. As to conditions: 1 μM of the test compound; read-out: Percent inhibition of CDK19 activity (%). The gist of the method:
as §1

Assay [1] deals with human multiple myeloma RPMI8226 cells. Put plainly: Inhibitory activity against human multiple myeloma RPMI8226 cell growth (CellTiter-Glo). As to conditions: Homo sapiens, RPMI-8226, 192 h, 1 μM of the test compound, cultured for 8 days; read-out: Percent inhibition of RPMI8226 cell growth (%). The assay is classed as cell-based. The gist of the method:
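RPMI8226 cells (300/well) cultured 1 day at 37 °C, 5% CO2, then given compound at 1 μM for 8 days. ATP luminescence (CellTiter-Glo) read; percent inhibition relative to 0.1% DMSO wells.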
Background: ATP-based viability assays read luminescence as a measure of living cells.

T1 sequence (P49336 whole entry): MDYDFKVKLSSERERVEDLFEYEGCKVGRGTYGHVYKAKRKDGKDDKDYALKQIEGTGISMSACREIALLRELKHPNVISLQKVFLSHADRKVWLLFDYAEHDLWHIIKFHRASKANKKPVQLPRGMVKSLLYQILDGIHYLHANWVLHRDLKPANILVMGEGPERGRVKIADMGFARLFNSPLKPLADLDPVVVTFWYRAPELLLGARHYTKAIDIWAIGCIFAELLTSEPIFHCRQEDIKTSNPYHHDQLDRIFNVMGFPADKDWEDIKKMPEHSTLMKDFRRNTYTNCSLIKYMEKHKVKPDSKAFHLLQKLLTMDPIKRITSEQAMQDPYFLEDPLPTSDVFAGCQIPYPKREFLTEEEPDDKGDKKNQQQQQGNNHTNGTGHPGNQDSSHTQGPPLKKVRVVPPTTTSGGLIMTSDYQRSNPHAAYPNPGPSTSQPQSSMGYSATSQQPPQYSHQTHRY
T1 sequence (P24863 whole entry partner): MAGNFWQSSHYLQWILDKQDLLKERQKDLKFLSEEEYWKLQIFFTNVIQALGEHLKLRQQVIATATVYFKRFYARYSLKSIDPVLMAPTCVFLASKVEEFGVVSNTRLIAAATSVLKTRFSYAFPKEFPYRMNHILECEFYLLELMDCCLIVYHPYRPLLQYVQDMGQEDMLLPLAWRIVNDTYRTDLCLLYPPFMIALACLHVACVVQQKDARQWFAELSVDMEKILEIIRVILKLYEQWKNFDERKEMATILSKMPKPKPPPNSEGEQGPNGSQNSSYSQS
T2 sequence (Q9BWU1 whole entry): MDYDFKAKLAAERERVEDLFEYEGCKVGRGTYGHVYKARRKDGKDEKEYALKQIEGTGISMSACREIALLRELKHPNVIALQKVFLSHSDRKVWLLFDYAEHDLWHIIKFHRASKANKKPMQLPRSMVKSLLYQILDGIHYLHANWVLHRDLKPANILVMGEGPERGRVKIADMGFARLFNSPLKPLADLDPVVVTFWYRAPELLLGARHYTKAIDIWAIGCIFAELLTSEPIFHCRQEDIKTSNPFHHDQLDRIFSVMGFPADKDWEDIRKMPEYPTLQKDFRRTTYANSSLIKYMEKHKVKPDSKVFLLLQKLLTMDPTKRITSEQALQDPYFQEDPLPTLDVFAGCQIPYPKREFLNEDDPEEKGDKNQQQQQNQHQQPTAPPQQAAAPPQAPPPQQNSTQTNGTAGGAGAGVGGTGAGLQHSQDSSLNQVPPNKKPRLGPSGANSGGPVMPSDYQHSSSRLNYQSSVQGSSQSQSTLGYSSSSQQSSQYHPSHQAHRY
T2 sequence (P24863 whole entry partner): as the sequence (P24863 whole entry partner) above

A word on the inhibition: it is the change of the read-out against control, counted positive when it falls. In the case of `Cn1ccc2cc(NC(=O)/C=C/c3cnccc3-c3cnn(C4CC4)c3)ccc21` [Example 251, (2E)-3-(4-(1-Cyclopropyl-1H-pyrazol-4-yl)pyridin-3-yl)-N-(1-methyl-1H-indol-5-yl)acrylamide], the inhibition at 1 µM on CDK8/CycC was 100%; at CDK19 (CDC2L6/CycC) it was 97%; in assay [1], 61%.
`CN(C)CCOc1ccc(NC(=O)/C=C/c2cnccc2-c2cnn(C)c2)cc1` [Example 252, (2E)-N-(4-(2-(dimethylamino)ethoxy)phenyl)-3-(4-(1-methyl-1H-pyrazol-4-yl)pyridin-3-yl)acrylamide]: the inhibition at 1 µM at CDK8/CycC stood at 99%; at CDK19 (CDC2L6/CycC) it was 93%; in assay [1] it was 60%.
Taken in the same sequence, the figures for `COCCOc1ccc(NC(=O)/C=C/c2cnccc2-c2cnn(C)c2)cc1` [Example 253, (2E)-N-(4-(2-methoxyethoxy)phenyl)-3-(4-(1-methyl-1H-pyrazol-4-yl)pyridin-3-yl)acrylamide] were 98%, 97% and 62%.
Taken in the same sequence, the figures for `CCN1CCc2cc(NC(=O)/C=C/c3cnccc3-c3cnn(C)c3)ccc2C1` [Example 256, (2E)-N-(2-ethyl-1,2,3,4-tetrahydroisoquinolin-6-yl)-3-(4-(1-methyl-1H-pyrazol-4-yl)pyridin-3-yl)acrylamide] were 96%, 95% and 58%.
Taken in the same sequence, the figures for `CCN1CCc2ccc(NC(=O)/C=C/c3cnccc3-c3cnn(C)c3)cc2C1` [Example 257, (2E)-N-(2-ethyl-1,2,3,4-tetrahydroisoquinolin-7-yl)-3-(4-(1-methyl-1H-pyrazol-4-yl)pyridin-3-yl)acrylamide] were 99%, 95% and 56%.
For `O=C(/C=C/c1cnccc1-c1cnn(C2CCC2)c1)Nc1ccc(CN2CCOCC2)cc1` [Example 258, (2E)-3-(4-(1-cyclobutyl-1H-pyrazol-4-yl)pyridin-3-yl)-N-(4-(morpholin-4-ylmethyl)phenyl)acrylamide], the inhibition at 1 µM at CDK8/CycC amounted to 96%; on CDK19 (CDC2L6/CycC), 96%; in assay [1] it was 54%.
Take `Cn1cc(-c2c(F)cncc2/C=C/C(=O)Nc2ccc(CN3CCOCC3)cc2F)cn1` [Example 260, (2E)-3-(5-Fluoro-4-(1-methyl-1H-pyrazol-4-yl)pyridin-3-yl)-N-(2-fluoro-4-(morpholin-4-ylmethyl)phenyl)acrylamide]: the results for the inhibition at 1 µM (on CDK8/CycC; at CDK19 (CDC2L6/CycC); in assay [1]) were 98%, 99% and 53%, respectively.
Take `Cn1cc2cc(-c3ccncc3/C=C/C(=O)Nc3ccc(CN4CCOCC4)cc3)ccc2n1` [Example 261, (2E)-3-(4-(2-methyl-2H-indazol-5-yl)pyridin-3-yl)-N-(4-(morpholin-4-ylmethyl)phenyl)acrylamide]: the inhibition at 1 µM on CDK8/CycC was determined as 97%; at CDK19 (CDC2L6/CycC), 93%; in assay [1], 52%.
In the same order, the values of `O=C(/C=C/c1cnccc1-c1cnn(C2CC2)c1)Nc1ccc2c(ccn2CC(F)(F)F)c1` [Example 266, (2E)-3-(4-(1-Cyclopropyl-1H-pyrazol-4-yl)pyridin-3-yl)-N-(1-(2,2,2-trifluoroethyl)-1H-indol-5-yl)acrylamide] are 99%, 98% and 57%.
Taken in the same sequence, the figures for `COC(C)c1ccc(NC(=O)/C=C/c2cnccc2-c2cnn(C3CC3)c2)cc1` (stereo not drawn) [Example 271, (2E)-3-(4-(1-cyclopropyl-1H-pyrazol-4-yl)pyridin-3-yl)-N-(4-(1-methoxyethyl)phenyl) acrylamide] were 102%, 93% and 62%.
Taken in the same sequence, the figures for `COC(C)(C)Cc1ccc(NC(=O)/C=C/c2cnccc2-c2cnn(C3CC3)c2)cc1` [Example 272, (2E)-3-(4-(1-cyclopropyl-1H-pyrazol-4-yl)pyridin-3-yl)-N-(4-(2-methoxy-2-methylpropyl)phenyl)acrylamide] were 101%, 94% and 67%.
`Cn1cc(-c2ccncc2/C=C/C(=O)Nc2ccc(Cn3cccn3)cc2)cn1` [Example 274, (2E)-3-(4-(1-methyl-1H-pyrazol-4-yl)pyridin-3-yl)-N-(4-(1H-pyrazol-1-ylmethyl)phenyl)acrylamide]: the inhibition at 1 µM at CDK8/CycC came out at 102%; at CDK19 (CDC2L6/CycC), 97%; in assay [1] it was 53%.
Taken in the same sequence, the figures for `Cn1cc(-c2ccncc2/C=C/C(=O)Nc2ccc(Cn3ccnc3)cc2)cn1` [Example 275, (2E)-N-(4-(1H-Imidazol-1-ylmethyl)phenyl)-3-(4-(1-methyl-1H-pyrazol-4-yl)pyridin-3-yl)acrylamide] were 102%, 98% and 64%.
`Cn1cc(-c2ccncc2/C=C/C(=O)Nc2ccc(CC(F)(F)F)cc2)cn1` [Example 276, (2E)-3-(4-(1-methyl-1H-pyrazol-4-yl)pyridin-3-yl)-N-(4-(2,2,2-trifluoroethyl)phenyl)acrylamide]: the inhibition at 1 µM is 99% at CDK8/CycC, 92% at CDK19 (CDC2L6/CycC) and 60% in assay [1].
Taken in the same sequence, the figures for `Cn1cc(-c2ccncc2/C=C/C(=O)Nc2ccc3c(c2)CCN(CC(F)(F)F)C3)cn1` [Example 277, (2E)-3-(4-(1-methyl-1H-pyrazol-4-yl)pyridin-3-yl)-N′-(2-(2,2,2-trifluoroethyl)-1,2,3,4-tetrahydroisoquinolin-6-yl)acrylamide] were 98%, 101% and 65%.
With `Cn1cc(-c2ccncc2/C=C/C(=O)Nc2ccc3c(c2)CCN3)cn1` [Example 280, (2E)-N-(2,3-dihydro-1H-indol-5-yl)-3-(4-(1-methyl-1H-pyrazol-4-yl)pyridin-3-yl)acrylamide], the inhibition at 1 µM was found to be 97% at CDK8/CycC, 96% at CDK19 (CDC2L6/CycC) and 58% in assay [1].
In the same order, the values of `Cn1cc(-c2ccc(NC(=O)/C=C/c3cnccc3-c3cnn(C4CC4)c3)cc2)cn1` [Example 281, (2E)-3-(4-(1-cyclopropyl-1H-pyrazol-4-yl)pyridin-3-yl)-N-(4-(1-methyl-1H-pyrazol-4-yl)phenyl)acrylamide] are 92%, 97% and 58%.
Consider `O=C(/C=C/c1cnccc1-c1ccc2ncn(CC3CC3)c2c1)Nc1ccc(CN2CCOCC2)cc1` [Example 283, (2E)-3-(4-(1-(Cyclopropylmethyl)-1H-benzimidazol-6-yl)pyridin-3-yl)-N-(4-(morpholin-4-ylmethyl)phenyl)acrylamide], for which the inhibition at 1 µM at CDK8/CycC worked out at 95%; at CDK19 (CDC2L6/CycC), 96%; in assay [1], 60%.
Taken in the same sequence, the figures for `Cn1cc(-c2ccncc2/C=C/C(=O)Nc2ccc(CC#N)cc2)cn1` [Example 284, (2E)-N-(4-(cyanomethyl)phenyl)-3-(4-(1-methyl-1H-pyrazol-4-yl)pyridin-3-yl)acrylamide] were 92%, 95% and 57%.
For the molecule `O=C(/C=C/c1cnccc1-c1cnn(CC2(F)CC2)c1)Nc1ccc(CN2CCOCC2)cc1` [Example 288, (2E)-3-(4-(1-((1-Fluorocyclopropyl)methyl)-1H-pyrazol-4-yl)pyridin-3-yl)-N-(4-(morpholin-4-ylmethyl)phenyl)acrylamide], the values for the inhibition at 1 µM (at CDK8/CycC; on CDK19 (CDC2L6/CycC); in assay [1]) were 99%, 101% and 57%, respectively.
In the same order, the values of `O=C(/C=C/c1cnccc1-c1cnn(C2CC2)c1)Nc1ccc(C2CC2)cc1` [Example 290] are 95%, 89% and 53%.
In the same order, the values of `O=C(/C=C/c1cnccc1-c1cnn(C2CC2)c1)Nc1ccc(COC(F)F)cc1` [Example 292, (2E)-3-(4-(1-Cyclopropyl-1H-pyrazol-4-yl)pyridin-3-yl)-N-(4-((difluoromethoxy)methyl)phenyl)acrylamide] are 97%, 93% and 52%.
Taken in the same sequence, the figures for `CC(C)(F)Cc1ccc(NC(=O)/C=C/c2cnccc2-c2cnn(C3CC3)c2)cc1` [Example 293, (2E)-3-(4-(1-cyclopropyl-1H-pyrazol-4-yl)pyridin-3-yl)-N-(4-(2-fluoro-2-methylpropyl)phenyl)acrylamide] were 102%, 95% and 61%.
On to `COCCn1cnc2ccc(-c3ccncc3/C=C/C(=O)Nc3ccc(CN4CCOCC4)cc3)cc21` [Example 295, (2E)-3-(4-(1-(2-methoxyethyl)-1H-benzimidazol-6-yl)pyridin-3-yl)-N-(4-(morpholin-4-ylmethyl)phenyl)acrylamide], for which the values for the inhibition at 1 µM (at CDK8/CycC; on CDK19 (CDC2L6/CycC); in assay [1]) were 103%, 97% and 62%, respectively.
In the same order, the values of `Cc1ccc(NC(=O)/C=C/c2cnccc2-c2cn[nH]c2)c(F)c1` [Example 296, (2E)-N-(2-fluoro-4-methylphenyl)-3-(4-(1H-pyrazol-4-yl)pyridin-3-yl)acrylamide] are 100%, 97% and 59%.

Source of the values: patent US9957251B2 (Takeda Pharmaceutical Company Limited, priority 2014, dated 2018).
